Experimental data from ChEMBL document CHEMBL1131388, “Synthesis and antitumor activity of 4-phenyl-1-arylsulfonyl imidazolidinones” (Bioorg Med Chem Lett, 1998).

Experiments:
K562 = assay: Cytotoxicity against human chronic myelogenous leukemia (K562) cell line using MTT assay; format: functional, cell-based
SK-OV-3 = assay: Cytotoxicity against human ovarian adenocarcinoma (SK-OV-3) cell line using MTT assay; format: functional, cell-based
A549 = assay: Cytotoxicity against human lung carcinoma A549 cell line using MTT assay
NCI-H23 [1] = assay: Antitumor activity was evaluated against human lung carcinoma (NCI-H23) as tumor growth inhibition in human tumor xenograft mice upon intraperitoneal administration at doses of 1,2,3mg/kg; format: functional
Colon 26 [2] = assay: Antitumor activity was evaluated against murine colon carcinoma (Colon26) as body weight change in BALB/c mice upon intraperitoneal administration at a dose of 4 mg/kg; format: functional, Mus musculus
SW-620 [3] = assay: Antitumor activity was evaluated against human colon carcinoma (SW620) as tumor growth inhibition in human tumor xenograft mice upon intraperitoneal administration at doses of 1,2,3mg/kg; format: functional
NCI-H23 [4] = assay: Antitumor activity was evaluated against human lung carcinoma (NCI-H23) as body weight change in human tumor xenograft mice upon intraperitoneal administration at doses of 1,2,3mg/kg; format: functional
[5] = Antitumor activity was evaluated against Lewis lung carcinoma as body weight change in BDF1 mice upon intraperitoneal administration at a dose of 4 mg/kg; format: functional, Mus musculus
SW-620 [6] = assay: Antitumor activity was evaluated against human colon carcinoma (SW620) as body weight change in human tumor xenograft mice upon intraperitoneal administration at doses of 1,2,3mg/kg; format: functional
Colon 26 [7] = assay: Antitumor activity was evaluated against murine colon carcinoma (Colon26) as tumor growth inhibition was determined in BALB/c mice upon intraperitoneal administration at a dose of 4 mg/kg; format: functional, Mus musculus
[8] = Antitumor activity was evaluated against Lewis lung carcinoma as tumor growth inhibition was determined in BDF1 mice upon intraperitoneal administration at a dose of 4 mg/kg; format: functional, Mus musculus
SW-620 [9] = assay: Antitumor activity was evaluated against human colon carcinoma (SW620) as tumor growth inhibition in human tumor xenograft mice upon peroral administration at a dose of 65 mg/kg; format: functional; conditions: Mus musculus, route oral, read-out: TGI
Colon 26 [10] = assay: Antitumor activity was evaluated against murine colon carcinoma (Colon26) as tumor growth inhibition was determined in BALB/c mice upon peroral administration at a dose of 65 mg/kg; format: functional; conditions: Mus musculus, route oral, read-out: TGI
Colon 26 [11] = assay: Antitumor activity was evaluated against murine colon carcinoma (Colon26) as body weight change in BALB/c mice upon peroral administration at a dose of 65 mg/kg; format: functional, Mus musculus; conditions: route oral
SW-620 [12] = assay: Antitumor activity was evaluated against human colon carcinoma (SW620) as body weight change in human tumor xenograft mice upon peroral administration at a dose of 65 mg/kg; format: functional; conditions: route oral
NCI-H23 [13] = assay: Antitumor activity was evaluated against human lung carcinoma (NCI-H23) as body weight change in human tumor xenograft mice upon peroral administration at a dose of 65 mg/kg; format: functional; conditions: route oral
NCI-H23 [14] = assay: Antitumor activity was evaluated against human lung carcinoma (NCI-H23) as tumor growth inhibition in human tumor xenograft mice upon peroral administration at a dose of 65 mg/kg; format: functional; conditions: Mus musculus, route oral, read-out: TGI
[15] = Antitumor activity was evaluated against Lewis lung carcinoma as tumor growth inhibition was determined in BDF1 mice upon peroral administration at a dose of 100 mg/kg; format: functional; conditions: Mus musculus, route oral, read-out: TGI
[16] = Antitumor activity was evaluated against Lewis lung carcinoma as body weight change in BDF1 mice upon peroral administration at a dose of 100 mg/kg; format: functional, Mus musculus; conditions: route oral

## O=C(c1ccc([N+](=O)[O-])cc1)N1CCc2cc(S(=O)(=O)N3CC(c4ccccc4)NC3=O)ccc21 (stereo not drawn)
K562
  IC50: 18 µM
SK-OV-3
  IC50: 4.24 µM
A549
  IC50: 3.45 µM

## O=C(Nc1ccc(Cl)cc1)NS(=O)(=O)c1ccc2c(c1)CCC2 [SULOFENUR]
K562
  IC50: 50.1 µM
SK-OV-3
  IC50: 223 µM
A549
  IC50: 36.4 µM

## COc1cccc2c1C(=O)c1c(O)c3c(c(O)c1C2=O)C[C@@](O)(C(=O)CO)C[C@@H]3O[C@H]1C[C@H](N)[C@H](O)[C@H](C)O1 [DOXORUBICIN]
K562
  IC50: 1.77 µM
NCI-H23 [1]
  TCI: 39%
Colon 26 [2]
  Body weight change: 3 g
SW-620 [3]
  TCI: 49%
NCI-H23 [4]
  Body weight change: -2.6 g
[5]
  Body weight change: 2 g
SW-620 [6]
  Body weight change: -2.6 g
Colon 26 [7]
  TCI: 42.5%
SK-OV-3
  IC50: 4.15 µM
[8]
  TCI: 60.4%

## O=C1NC(c2ccccc2)CN1S(=O)(=O)c1ccc2c(c1)CCC2 (stereo not drawn)
K562
  IC50: 42.7 µM
SK-OV-3
  IC50: 12.1 µM
A549
  IC50: 4.74 µM

## Nc1ccc(C(=O)N2CCc3cc(S(=O)(=O)N4CC(c5ccccc5)NC4=O)ccc32)cc1 (stereo not drawn)
K562
  IC50: 0.44 µM
SW-620 [9]
  inhibition in vivo at 65 mg/kg: 87%
Colon 26 [10]
  inhibition in vivo at 65 mg/kg: 55.6%
Colon 26 [11]
  Body weight change: 0.4 g
SW-620 [12]
  Body weight change: 1 g
NCI-H23 [13]
  Body weight change: 0.6 g
NCI-H23 [14]
  inhibition in vivo at 65 mg/kg: 67%
SK-OV-3
  IC50: 1.24 µM
A549
  IC50: 0.2 µM
[15]
  inhibition in vivo at 100 mg/kg: 84.3%
[16]
  Body weight change: -1 g

## O=C(c1ccccc1)N1CCc2cc(S(=O)(=O)N3CC(c4ccccc4)NC3=O)ccc21 (stereo not drawn)
K562
  IC50: 4.12 µM
SK-OV-3
  IC50: 0.56 µM
A549
  IC50: 0.44 µM
